Source: article PMC6884575, “Suppression of FOXM1 activities and breast cancer growth in vitro and in vivo by a new class of compounds” (NPJ Breast Cancer, 2019)

Legend:
[1] = test system: FOXM1 target gene expression in MCF7 cells; experiment: FOXM1 target gene expression by qRT-PCR; assay type: cell-based, human; conditions: MCF7, 24 h, compound at its IC50 for proliferation
Experimental: Total RNA was isolated using TRIzol (Invitrogen) and reverse transcribed using […] reverse transcriptase (New England BioLabs). Real-time PCR was performed using SYBRgreen PCR Master Mix (Quantabio) as described.[15] Relative mRNA levels of genes were normalized to the housekeeping gene 36B4, and fold-change calculated relative to the vehicle treated samples. Results are the average ± SD from at least two independent experiments carried out in triplicate. Primer sequences for the genes studied were obtained from the Harvard Primer Bank. Sequences are available on their website.

[2] = test system: DT22 breast tumor xenografts; experiment: DT22 human breast tumor xenograft growth in NSG mice; assay type: in vivo
Experimental: For examination of the effects of compounds on breast tumor growth suppression, intact female NOD/SCID-gamma (NSG) mice were used as detailed previously.[39] DT-22 breast cancer cells (1 × 10^6 cells/mouse) were injected s.c. into the right axial mammary gland. Mice received s.c. injection or oral gavage daily or every second or third day as indicated, with vehicle or treatment compound, and tumor volume (length × width^2/2) was monitored over time.

MCF10A breast cell line = experiment: Cell proliferation in non-tumorigenic MCF10A cells; assay type: cell-based, human; conditions: low level of FOXM1
Experimental: WST-1 assay (Roche, Basel, Switzerland) was used to quantify cell viability as described.[38] Absorbance was measured at 450 nm using a VICTOR X5 PerkinElmer 2030 Multilabel Plate Reader. All assays were performed in triplicate and analyzed using Graph Pad Prism 8.0.

FOXM1 = target: T1, FOXM1 (Homo sapiens, UniProt Q08050); experiment: Cellular FOXM1 protein level by Western blot; assay type: cell-based; parameters: endogenous in cells; host or cells: MDA-MB-231, MCF7; conditions: MDA-MB-231 or MCF7 cells over time; NB-55 5/8 µM, NB-73 1.5/4 µM, NB-115 4 µM, FDI-6 8 µM
T1 sequence (Q08050 1-763): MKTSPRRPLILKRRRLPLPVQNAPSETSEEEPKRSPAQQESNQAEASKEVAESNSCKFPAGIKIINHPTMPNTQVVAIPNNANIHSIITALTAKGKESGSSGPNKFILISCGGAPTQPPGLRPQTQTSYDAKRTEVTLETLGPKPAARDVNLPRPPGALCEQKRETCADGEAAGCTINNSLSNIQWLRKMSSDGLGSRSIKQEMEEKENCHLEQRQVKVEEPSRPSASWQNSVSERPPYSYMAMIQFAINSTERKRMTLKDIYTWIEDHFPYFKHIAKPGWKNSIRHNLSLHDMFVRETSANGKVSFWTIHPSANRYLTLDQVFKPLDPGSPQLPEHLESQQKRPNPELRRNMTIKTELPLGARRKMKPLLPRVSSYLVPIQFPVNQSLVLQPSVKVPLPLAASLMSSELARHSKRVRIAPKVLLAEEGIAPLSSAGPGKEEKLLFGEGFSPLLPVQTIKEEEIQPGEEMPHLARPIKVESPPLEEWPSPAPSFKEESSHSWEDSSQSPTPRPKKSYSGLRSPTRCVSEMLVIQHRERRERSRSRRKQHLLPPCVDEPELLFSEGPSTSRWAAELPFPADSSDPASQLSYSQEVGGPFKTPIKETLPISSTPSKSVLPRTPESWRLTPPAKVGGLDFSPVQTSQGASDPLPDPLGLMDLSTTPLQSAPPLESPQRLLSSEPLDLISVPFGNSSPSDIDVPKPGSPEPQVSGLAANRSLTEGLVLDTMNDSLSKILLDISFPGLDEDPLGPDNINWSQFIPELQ
Experimental: For Western blot analysis, whole-cell extracts were prepared using 1X RIPA lysis buffer (Thermo Fisher) supplemented with 1X protease inhibitor cocktail (Millipore Sigma). […] In some cases, treatments with compound were done in the presence of the proteasome inhibitor MG132 (Calbiochem) as described in the figure legend. […] Band intensities were analyzed with Licor Odyssey 2.1 software. All blots shown together derive from the same experiment and were processed in parallel. Full uncropped images of blots are shown as supplementary figures in the Supplementary Information file. Molecular weight markers were Rainbow markers from GE Healthcare (38–225 kDa) or Precision Plus Dual Color Markers from Biorad (37–250 kDa).

Clc1ccc(C(=C2C3CC4CC(C3)CC2C4)c2ccc(OCCCCCCN3CCCC3)cc2)cc1 [NB-55]
expression of ATF3, a gene suppressed by FOXM1 [1]: increased expression of ATF3 | expression of FOXM1 stimulated target genes (FOXM1C, AURKB, CCNB1, PLK1) [1]: significantly reduced the expression | tumor suppression ([2]; 20 or 40 mg/kg doses (data not shown)): only marginally effective | growth of human breast tumor xenografts ([2]; DT22 tumors, NSG mice, 100 mg/kg oral gavage daily): very effectively suppressed the growth | concentration for 50% suppression of proliferation relative to breast cancer cell lines (MCF10A breast cell line): five times higher | intracellular level of FOXM1 (FOXM1): reduced the intracellular level of FOXM1
